Results as given in article PMC10694602, “Binding of perilipin 3 to membranes containing diacylglycerol is mediated by conserved residues within its PAT domain” (The Journal of Biological Chemistry, 2023).
Substitutions are numbered along the chain they refer to. Where a name gives a salt, the structure may show the parent alone. Read-outs that look alike come from different tables or passages of the source.

Tests used:
PAT domain of PLIN3 = biological target: T1, PAT domain of PLIN3 (Homo sapiens, UniProt O60664); assay: MST binding to the PAT domain of PLIN3; settings: short chain lipids as free ligands; for Kd: n.d. = not detected, Fig. 2B
T1 sequence (O60664 1-107 limits assumed): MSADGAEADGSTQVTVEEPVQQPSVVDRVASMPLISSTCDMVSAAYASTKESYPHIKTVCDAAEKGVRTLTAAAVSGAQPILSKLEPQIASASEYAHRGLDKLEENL
Description: (§1) To gain further insight into the binding of PLIN3 to DAG-containing membranes, we examined the contribution of each individual domain of PLIN3 towards lipid binding, that is, the N-terminal PAT domain, the central 11-mer repeat region, and the C-terminally located 4-helix bundle (Fig. 2A). Therefore, we expressed and purified proteins harboring individual domains of PLIN3 and first examined their binding of short-chain lipids.
(§2) Binding of purified PLIN3 protein and PLIN3 domains to liposomes, ALDs, or short chain lipids was determined by MST using a Monolith NT.115 system (Nanotemper Technologies). Proteins were labeled with a RED-tris-NTA His tag protein-labeling reagent following the manufacturer’s instructions (Nanotemper Technologies). Labeled proteins were added to a serial dilution of unlabeled lipids, liposomes, or ALDs, and the mixtures were loaded into MST standard capillaries to assess binding affinities. The dissociation constant was obtained by plotting fluorescence intensities of the protein–lipid complex against the concentrations of the unlabeled lipids, liposomes, or ALDs. Experiments were performed in triplicates and data were fitted using the KD Model of the MO.Affinity Analysis software (https://nanotempertech.com/, Nanotemper Technologies).

PLIN3 = biological target: T2, PLIN3 (Homo sapiens, UniProt O60664); assay: Microscale thermophoresis (MST) binding of lipids, liposomes or ALDs to full-length WT PLIN3; settings: for fold increase of PLIN3 binding versus unspiked DOPC/DOPE liposomes: DOPC/DOPE (80/20 mol%) liposomes, DAG 5 mol%, DOPA 10 mol%
T2 construct: Plasmids containing human full-length PLIN3 or fragments thereof were obtained by PCR amplification; made in house; host or cells: Escherichia coli BL21 (DE3) or NiCo21 (DE3)
T2 sequence (O60664 1-434): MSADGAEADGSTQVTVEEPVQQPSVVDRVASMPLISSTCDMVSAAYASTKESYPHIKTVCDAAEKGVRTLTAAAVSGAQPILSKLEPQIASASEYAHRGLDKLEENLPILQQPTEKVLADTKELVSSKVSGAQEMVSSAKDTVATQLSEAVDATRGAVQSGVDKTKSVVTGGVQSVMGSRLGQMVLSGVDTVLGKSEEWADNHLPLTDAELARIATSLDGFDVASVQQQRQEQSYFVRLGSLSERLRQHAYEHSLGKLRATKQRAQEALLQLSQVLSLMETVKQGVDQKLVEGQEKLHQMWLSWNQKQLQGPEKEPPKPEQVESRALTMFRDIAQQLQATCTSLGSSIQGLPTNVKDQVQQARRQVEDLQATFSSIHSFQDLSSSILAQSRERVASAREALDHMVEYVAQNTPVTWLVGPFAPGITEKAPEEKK
Description: To corroborate these findings, we analyzed binding of PLIN3 to liposomes using microscale thermophoresis (MST), an immobilization-free technology for measuring biomolecular interactions based on the diffusion of a fluorescently labeled protein along a microscopic temperature gradient. In this assay, the free protein diffuses faster than the one which has bound to a ligand. Ligands can range from small ions to low molecular weight compounds, liposomes, or even viruses ([24], [25], [26], [27], [28]). Variations in fluorescence intensity are then plotted against the ligand concentrations to determine a binding affinity. […] To determine the optimal DAG concentrations for PLIN3 binding, we varied the DAG concentrations in the ER-liposomes between 0 to 20 mol%.
as §2

His-tagged human PLIN3 = biological target: T3, His-tagged human PLIN3 (Homo sapiens, UniProt O60664); assay: Liposome flotation assay on a sucrose gradient, PLIN3 detected by Western blotting; type: binding; settings: ER-liposomes containing 16:0 DAG at 5 mol%; top layer of sucrose gradient
T3 construct: Plasmids containing human full-length PLIN3 or fragments thereof were obtained by PCR amplification; made in house; host or cells: Escherichia coli BL21 (DE3) or NiCo21 (DE3)
T3 sequence (O60664 1-434): T2 sequence (O60664 1-434)
Experimental: To examine the interaction between soluble PLIN3 and membranes containing DAG, we first performed liposome-binding assays. Therefore, purified His-tagged human PLIN3 was incubated with liposomes prepared from a phospholipid mixture that mimics the composition of the ER membrane (DOPC/DOPE/DOPS/DOPA/SoyPI, 53/23/8/5/11 mol%; hereafter termed ER-liposomes) lacking or containing low concentrations of DAG (16:0 DAG; 5 mol%). Liposomes were then floated on a sucrose gradient, and PLIN3 binding was monitored by Western blotting.
Purified PLIN3 was incubated with liposomes for 1 h at RT and then gently mixed with an equal volume of 60% (w/v) sucrose solution in liposome buffer to obtain a final sucrose concentration of 30%. This mixture was overlaid with two volumes of 20% sucrose solution, two volumes of 10% sucrose solution, and one volume of liposome buffer. The samples were centrifuged at 177,000g for 1 h at 20 °C. Four fractions were collected from the top of the gradient and the distribution of PLIN3 was analyzed by Western blotting. Signal intensities were quantified using ImageJ (https://imagej.net/ij/) software.

[1] = biological target: T4, 11-mer repeat region of PLIN3 (Homo sapiens, UniProt O60664); assay: MST binding to the 11-mer repeat region of PLIN3; settings: short chain lipids as free ligands; n.d. = not detected; Fig. 2B
T4 sequence (O60664 115-179 limits assumed): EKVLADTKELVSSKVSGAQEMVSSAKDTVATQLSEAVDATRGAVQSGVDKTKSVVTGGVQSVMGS
Description: as §1, §2

4-helix bundle of PLIN3 = biological target: T5, 4-helix bundle of PLIN3 (Homo sapiens, UniProt O60664); assay: MST binding to the 4-helix bundle of PLIN3
T5 sequence (O60664 245-434 limits assumed): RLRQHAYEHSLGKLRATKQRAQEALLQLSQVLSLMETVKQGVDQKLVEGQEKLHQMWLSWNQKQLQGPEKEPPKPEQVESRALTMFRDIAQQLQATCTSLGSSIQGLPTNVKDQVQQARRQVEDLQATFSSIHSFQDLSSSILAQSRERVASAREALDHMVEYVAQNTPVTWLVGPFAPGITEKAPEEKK
Description: as §1, §2

PLIN3 - S24A S93A = biological target: T6, PLIN3 - S24A S93A (Homo sapiens, UniProt O60664, S24A/S93A); assay: MST binding to the PLIN3 serine double mutant; settings: short chain lipid as free ligand
T6 construct: Plasmids containing human full-length PLIN3 or fragments thereof were obtained by PCR amplification; made in house; host or cells: Escherichia coli BL21 (DE3) or NiCo21 (DE3)
T6 sequence (O60664 1-434 S24A/S93A): T2 sequence (O60664 1-434) with S24A, S93A
Description: (§3) To validate this predicted mode of DAG binding by the PAT domain, we generated mutant versions of PLIN3 and assessed their impact on DAG binding by MST. First, we tested whether the simultaneous substitution of the five residues, Q22, S24, E86A, I89G, and S93A, would impact either binding of short chain DAG or that of liposomes containing low concentrations of DAG. […] To assess the impact of these residues in more detail, we first tested mutations in the two serine residues S24A and S93A. […] To confirm the importance of the glutamic acid residue at position 86 for binding of DAG, we also generated an E86A point mutant version.
as §2, with “Experiments were performed in triplicates and data were fitted using the KD Model of the MO.Affinity Analysis software (https://nanotempertech.com/, Nanotemper Technologies).” left out

PLIN3 - E86A = biological target: T7, PLIN3 - E86A (Homo sapiens, UniProt O60664, E86A); assay: MST binding to the PLIN3 point mutant; settings: short chain lipid as free ligand
T7 construct: Plasmids containing human full-length PLIN3 or fragments thereof were obtained by PCR amplification; made in house; host or cells: Escherichia coli BL21 (DE3) or NiCo21 (DE3)
T7 sequence (O60664 1-434 E86A): T2 sequence (O60664 1-434) with E86A
Description: as §3
as §2, with “Experiments were performed in triplicates and data were fitted using the KD Model of the MO.Affinity Analysis software (https://nanotempertech.com/, Nanotemper Technologies).” left out

[2] = biological target: T8, PLIN3 - Q22A S24A E86A I89G S93A (Homo sapiens, UniProt O60664, E86A/I89G/Q22A/S24A/S93A); assay: MST binding to the PLIN3 quintuple mutant; settings: short chain lipid as free ligand; n.d.; Fig. S1
T8 construct: Plasmids containing human full-length PLIN3 or fragments thereof were obtained by PCR amplification; made in house; host or cells: Escherichia coli BL21 (DE3) or NiCo21 (DE3)
T8 sequence (O60664 1-434 Q22A/S24A/E86A/I89G/S93A): T2 sequence (O60664 1-434) with Q22A, S24A, E86A, I89G, S93A
Description: as §3
as §2, with “Experiments were performed in triplicates and data were fitted using the KD Model of the MO.Affinity Analysis software (https://nanotempertech.com/, Nanotemper Technologies).” left out

PLIN3 - E86A I89G S93A = biological target: T9, PLIN3 - E86A I89G S93A (Homo sapiens, UniProt O60664, E86A/I89G/S93A); assay: MST binding to the PLIN3 triple mutant; settings: short chain lipid as free ligand; n.d. = not detected; Fig. 4C
T9 construct: Plasmids containing human full-length PLIN3 or fragments thereof were obtained by PCR amplification; made in house; host or cells: Escherichia coli BL21 (DE3) or NiCo21 (DE3)
T9 sequence (O60664 1-434 E86A/I89G/S93A): T2 sequence (O60664 1-434) with E86A, I89G, S93A
Description: as §3
as §2, with “Experiments were performed in triplicates and data were fitted using the KD Model of the MO.Affinity Analysis software (https://nanotempertech.com/, Nanotemper Technologies).” left out

[3] = short chain lipid as free ligand, Fig. 1I, Fig. 4C, read-out: KD
[4] = ER-liposomes supplemented with the named DAG at 5 mol%, KD against liposome concentration, Fig. 1C, read-out: KD

## CCCCCCCC(=O)OCC(COC(=O)CCCCCCC)OC(=O)CCCCCCC [8:0 TAG, 1,2,3-trioctanoylglycerol]
PAT domain of PLIN3
  Kd: 17.3 µM
PLIN3; [3]
  Kd: 0.27 µM

## CCCCCCCC/C=C\CCCCCCCC(=O)OC[C@H](COP(=O)(O)O)OC(=O)CCCCCCC/C=C\CCCCCCCC [18:1 PA, 1,2-dioleoyl-sn-glycero-3-phosphate]
PLIN3
  fold increase of PLIN3 binding versus unspiked DOPC/DOPE liposomes: 9 fold
PLIN3; PC/PE liposomes (DOPC/DOPE; 80/20 mol%) spiked with the named lipid at 10 mol%, n.d. = not detected, Fig. 1H, read-out: KD
  Kd: 58.1 µM

## CCCCCCCCCCCCCCCC(=O)OC[C@H](CO)OC(=O)CCCCCCCCCCCCCCC [16:0 DAG, 1,2-dipalmitoyl-sn-glycerol]
His-tagged human PLIN3
  fraction of PLIN3 recovered from liposomes: 13.9%
PLIN3
  fold increase of PLIN3 binding versus unspiked DOPC/DOPE liposomes: 36 fold
PLIN3; ER-liposomes containing 16:0 DAG at 5 mol%
  fold lower dissociation constant than ER-liposomes lacking DAG: 29 fold
PLIN3; [4]
  Kd: 20.6 µM
PLIN3; PC/PE liposomes (DOPC/DOPE; 80/20 mol%) spiked with 16:0 DAG at 5 mol%, Fig. 1H, read-out: KD
  Kd: 15 µM

## CC(C)CCC[C@@H](C)[C@H]1CC[C@H]2[C@@H]3CC=C4C[C@@H](O)CC[C@]4(C)[C@H]3CC[C@]12C [cholesterol]
PLIN3; ER-liposomes supplemented with 20 mol% cholesterol, Fig. 1E, read-out: KD
  Kd: 64.9 µM

## CCCCCCCC(=O)OC[C@H](COP(=O)(O)OC[C@H](N)C(=O)O)OC(=O)CCCCCCC [8:0 PS, 1,2-dioctanoyl-sn-glycero-3-phospho-L-serine sodium salt]
PAT domain of PLIN3
  Kd: 106 ± 30.5 µM
[1]
  Kd: 471 ± 53.8 µM

## CCCCCCC(=O)OC[C@H](COP(=O)([O-])OCC[N+](C)(C)C)OC(=O)CCCCCC [7:0 PC, 1,2-diheptanoyl-sn-glycero-3-phosphocholine]
4-helix bundle of PLIN3
  Kd: 88.5 ± 28.8 µM
PLIN3
  Kd: 214 ± 71 µM

## CCCCCCCC(=O)OC[C@H](CO)OC(=O)CCCCCCC [8:0 DAG, 1,2-dioctanoyl-sn-glycerol]
4-helix bundle of PLIN3; short chain lipids as free ligands, n.d. = not detected, Fig. 2B, read-out: KD 4-helix
  Kd: 20.7 µM
PLIN3 - S24A S93A
  fold decreased affinity versus WT PLIN3: 20.9 fold
PLIN3 - S24A S93A; Fig. S1
  Kd: 2090 nM
PAT domain of PLIN3
  fold stronger binding than 8:0 PA: 36 fold
  Kd: 0.39 µM
PLIN3 - E86A
  fold less efficient binding than WT PLIN3: 873 fold
PLIN3 - E86A; Fig. 4C
  Kd: 87.3 µM
PLIN3; [3]
  Kd: 0.1 µM
[2]
  KD: failed to bind
PLIN3 - E86A I89G S93A
  KD: failed to bind

## CCCCCCCC/C=C\CCCCCCCC(=O)OC[C@H](CO)OC(=O)CCCCCCC/C=C\CCCCCCCC [18:1 DAG, 1,2-dioleoyl-sn-glycerol]
PLIN3; [4]
  Kd: 60.1 µM

## CCCCCCCC(=O)OC[C@H](COP(=O)(O)O)OC(=O)CCCCCCC [8:0 PA, 1,2-dioctanoyl-sn-glycero-3-phosphate sodium salt]
PAT domain of PLIN3
  Kd: 14.1 µM
